This passage reports pest or weed control, inhibition of growth and melting point results from US20240343717A1, “MICROBIOCIDAL PYRAZOLE DERIVATIVES” (SYNGENTA CROP PROTECTION AG, priority 2021, published 2024).

In data set [1] the test system is Alternaria solani. The data set is described as follows: Alternaria solani / tomato / leaf disc (early blight). Conditions: foliar, tomato leaf disks, sprayed 2 days before inoculation, compared to untreated control. It is filed as in vivo. As for the experimental part:
Example B1: Alternaria solani/Tomato/Leaf Disc (Early Blight) Tomato leaf disks cv. Baby are placed on agar in multiwell plates (24-well format) and sprayed with the formulated test compound diluted in water. The leaf disks are inoculated with a spore suspension of the fungus 2 days after application. The inoculated leaf disks are incubated at 23° C./21° C.

Data set [2] deals with Botryotinia fuckeliana (Botrytis cinerea). The data set is described as follows: Botryotinia fuckeliana (Botrytis cinerea) / liquid culture (gray mould). It is filed as cell-based. Particulars: growth inhibition photometrically 3-4 days after application, read-out: control of Botryotinia fuckeliana. In a few lines:
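Conidia suspended in Vogels broth and added to compound dispensed from DMSO. Incubated at 24°C, with growth inhibition measured photometrically 3–4 days later.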

Data set [3] deals with Glomerella lagenarium (Colletotrichum lagenarium). In words: Glomerella lagenarium (Colletotrichum lagenarium) / liquid culture (anthracnose). It is filed as cell-based. Particulars: Colletotrichum orbiculare, growth inhibition photometrically 3-4 days after application, read-out: control of Glomerella lagenarium. In a few lines: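 Cryo-stored conidia in potato dextrose broth were added to test compound in DMSO. Plates were incubated at 24° C, and growth inhibition was read photometrically 3-4 days after application.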

Data set [4] has as its system Fusarium culmorum. The data set is described as follows: microbe, parasite or virus in culture. Type of data set: cell-based. Particulars: read-out: control of Fusarium culmorum.
The test system of data set [5] is Gibberella zeae (Fusarium graminearum). The data set is described as follows: whole plant or invertebrate. Type of data set: in vivo. Conditions: in Triticum aestivum, read-out: control of Gibberella zeae.
For data set [6], the system named is Monographella nivalis (Microdochium nivale). The data set is described as follows: Monographella nivalis (Microdochium nivale) / liquid culture (foot rot cereals). It is filed as cell-based. Particulars: growth inhibition photometrically 4-5 days after application, read-out: control of Monographella nivalis. In a few lines:
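Fungal conidia mixed directly into potato dextrose broth and added to test compound delivered in DMSO. Incubated at 24° C; growth inhibition read photometrically 4-5 days after application.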

In data set [7] the test system is Mycosphaerella arachidis (Cercospora arachidicola). In words: Mycosphaerella arachidis (Cercospora arachidicola) / liquid culture (early leaf spot). Type of data set: cell-based. Conditions: growth inhibition photometrically 4-5 days after application, read-out: control of Mycosphaerella arachidis. In a few lines:
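Spores taken straight from cryostorage are suspended in potato dextrose broth and added to test compound in DMSO. Plates are incubated at 24° C. Growth inhibition is scored photometrically 4-5 days after application.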

Data set [8] concerns Pyrenophora teres. The data set is described as follows: Pyrenophora teres / barley / leaf disc preventative (net blotch). It is filed as in vivo. Conditions: foliar, barley leaf segments, inoculated 2 days after application. In a few lines: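 Barley cv. Hasso leaf segments on agar sprayed with formulated compound, inoculated with spores 2 days later. Incubated at 20 °C, 65% rh, 12 h light/dark; disease control versus untreated assessed 5–7 days after application.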

Data set [9] deals with Mycosphaerella graminicola (Septoria tritici). The data set is described as follows: Mycosphaerella graminicola (Septoria tritici) / liquid culture (Septoria blotch). It is filed as cell-based. Conditions: Zymoseptoria tritici, growth inhibition photometrically 4-5 days after application, read-out: control of Mycosphaerella graminicola. In a few lines:
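Conidia suspended in potato dextrose broth and added to test compound supplied in DMSO in 96-well plates. Incubated at 24 °C, and growth inhibition read photometrically 4-5 days after application.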

The subject of data set [10] is Blumeria graminis f. sp. tritici (Erysiphe graminis f. sp. tritici). The data set is described as follows: Blumeria graminis f. sp. tritici / wheat / leaf disc preventative (powdery mildew on wheat). It is filed as in vivo. Particulars: foliar, wheat leaf segments, inoculated 1 day after application. As for the experimental part: Example B4: Blumeria graminis f. Sp. Tritici (Erysiphe graminis f. Sp. Tritici)/Wheat/Leaf Disc Preventative (Powdery Mildew on Wheat) Wheat leaf segments cv. Kanzler are placed on agar in a multiwell plate (24-well format) and sprayed with the formulated test compound diluted in water. The leaf disks are inoculated by shaking powdery mildew infected plants above the test plates 1 day after application. The inoculated leaf disks are incubated at 20° C. and 60% rh under a light regime of 24 h darkness followed by 12 h light/12 h darkness in a climate chamber and the activity of a compound is assessed as percent disease control compared to untreated when an appropriate level of disease damage appears on untreated check leaf segments (6-8 days after application).

The subject of data set [11] is Phaeosphaeria nodorum (Septoria nodorum). In words: Phaeosphaeria nodorum (Septoria nodorum) / wheat / leaf disc preventative (glume blotch). Conditions: Parastagonospora nodorum, foliar, wheat leaf segments, inoculated 2 days after application. Type of data set: in vivo. Here is the method:
Example B8: Phaeosphaeria nodorum (Septoria nodorum)/Wheat/Leaf Disc Preventative (Glume Blotch) Wheat leaf segments cv. Kanzler are placed on agar in a multiwell plate (24-well format) and sprayed with the formulated test compound diluted in water. The leaf disks are inoculated with a spore suspension of the fungus 2 days after application. The inoculated test leaf disks are incubated at 20° C. and 75% rh under a light regime of 12 h light/12 h darkness in a climate cabinet and the activity of a compound is assessed as percent disease control compared to untreated when an appropriate level of disease damage appears in untreated check leaf disks (5-7 days after application).

Data set [12] deals with Sclerotinia sclerotiorum. In words: Sclerotinia sclerotiorum / liquid culture (cottony rot). It is filed as cell-based. Conditions: growth inhibition photometrically 3-4 days after application, read-out: control of Sclerotinia sclerotiorum. Here is the method: Example B15: Sclerotinia sclerotiorum/Liquid Culture (Cottony Rot) Mycelia fragments of a newly grown liquid culture of the fungus are directly mixed into nutrient broth (PDB potato dextrose broth). After placing a (DMSO) solution of test compound into a microtiter plate (96-well format) the nutrient broth containing the fungal material is added. The test plates are incubated at 24° C. and the inhibition of growth is determined photometrically 3-4 days after application.

For the compound `Cn1cc(C(C)(CNC(=O)c2cc(C3CCCC3)on2)c2cccc(Cl)n2)cn1` (stereo not shown) [Compound P-80, N-[2-(6-chloro-2-pyridyl)-2-(1-methylpyrazol-4-yl)propyl]-5-cyclopentyl-isoxazole-3-carboxamide], the pest or weed control at 200 ppm in [1], in [5] and in data set [8] was at least 80% in each case. For the same compound, the inhibition of growth at 20 ppm in data set [2], in [3], in [4], in data set [6], in data set [7] and in data set [9] was at least 80% each time.

Broadly, the melting point is the temperature of the solid-liquid transition. `Cn1ncc(C(CNC(=O)c2cc(-c3ccc(F)cc3F)on2)c2cccc(Cl)n2)c1Cl` (stereo not shown) [Compound P-69, N-[2-(5-chloro-1-methyl-pyrazol-4-yl)-2-(6-chloro-2-pyridyl)ethyl]-5-(2,4-difluorophenyl) isoxazole-3-carboxamide] displayed a melting point of 113 to 115 °C. The inhibition of growth at 20 ppm in data set [2] is at least 80%. The inhibition of growth at 20 ppm in data set [3] is at least 80%. Besides, the pest or weed control at 200 ppm in [10] is at least 80%. In data set [11], this compound yielded a pest or weed control at 200 ppm of at least 80%. The inhibition of growth at 20 ppm in data set [6] was at least 80%. For the same compound, the inhibition of growth at 20 ppm in data set [7] is at least 80%. This compound returned a pest or weed control at 200 ppm in [8] of at least 80%. The inhibition of growth at 20 ppm in data set [9] is at least 80%.

On to `Cn1cc(C(C)(CNC(=O)c2nnc(-c3ccc(F)cc3F)s2)c2cccc(Cl)n2)cn1` (stereo not shown) [Compound P-9, N-[2-(6-chloro-2-pyridyl)-2-(1-methylpyrazol-4-yl)propyl]-5-(2,4-difluorophenyl)-1,3,4-thiadiazole-2-carboxamide], for which the pest or weed control at 200 ppm in data set [1], in data set [10], in data set [5], in data set [11] and in data set [8] was at least 80% each time. For the same compound, the inhibition of growth at 20 ppm in data set [2], in data set [3], in data set [4], in [6], in [7] and in data set [12] was at least 80% throughout. In data set [9], the inhibition of growth at 20 ppm is at least 80%.

Turning to `Cn1cc([C@@](C)(CNC(=O)c2cc(-c3ccc(F)cc3F)on2)c2cccc(Cl)n2)cn1` [Compound P-30, N-[(2S)-2-(6-chloro-2-pyridyl)-2-(1-methylpyrazol-4-yl)propyl]-5-(2,4-difluorophenyl) isoxazole-3-carboxamide], the pest or weed control at 200 ppm in [5] was at least 80%.

`Cn1ncc(C(CNC(=O)c2nnc(-c3ccc(F)cc3F)s2)c2cccc(Cl)n2)c1Cl` (stereo not shown) [Compound P-116, N-[2-(5-chloro-1-methyl-pyrazol-4-yl)-2-(6-chloro-2-pyridyl)ethyl]-5-(2,4-difluorophenyl)-1,3,4-thiadiazole-2-carboxamide] registered a melting point of 150 to 151 °C. The inhibition of growth at 20 ppm in [2] is at least 80%. Also, the inhibition of growth at 20 ppm in data set [3] is at least 80%. Moreover, in [4], the inhibition of growth at 20 ppm is at least 80%. In data set [6], the inhibition of growth at 20 ppm was at least 80%. The inhibition of growth at 20 ppm in data set [7] was at least 80%. Also, the inhibition of growth at 20 ppm in data set [9] is at least 80%.

As for `Cn1cc(C(C)(CNC(=O)c2cc(-c3ccc(F)cc3F)on2)c2cccc(C(F)(F)F)n2)cn1` (stereo not shown) [Compound P-106, 5-(2,4-difluorophenyl)-N-[2-(1-methylpyrazol-4-yl)-2-[6-(trifluoromethyl)-2-pyridyl]propyl] isoxazole-3-carboxamide], the melting point lay in the range of 160 to 165 °C. This compound displayed a pest or weed control at 200 ppm in [1] of at least 80%. Besides, the inhibition of growth at 20 ppm in data set [2] is at least 80%. In addition, the inhibition of growth at 20 ppm in data set [3] was at least 80%. Also, the inhibition of growth at 20 ppm in data set [4] is at least 80%. For the same compound, in data set [6], the inhibition of growth at 20 ppm was at least 80%. Besides, in data set [7], the inhibition of growth at 20 ppm was at least 80%. Moreover, the inhibition of growth at 20 ppm in [12] is at least 80%. For the same compound, the inhibition of growth at 20 ppm in data set [9] was at least 80%.

In turn, `Cn1cc(C(C)(CNC(=O)c2nnc(-c3ccc(F)cc3F)s2)c2cccc(C#N)n2)cn1` (stereo not shown) [Compound P-115, N-[2-(6-cyano-2-pyridyl)-2-(1-methylpyrazol-4-yl)propyl]-5-(2,4-difluorophenyl)-1,3,4-thiadiazole-2-carboxamide] registered a melting point of 169 to 170 °C. For the same compound, the inhibition of growth at 20 ppm in data set [2] was at least 80%. In addition, the inhibition of growth at 20 ppm in data set [3] is at least 80%. For the same compound, the inhibition of growth at 20 ppm in [4] is at least 80%. For the same compound, the inhibition of growth at 20 ppm in [6] is at least 80%. In addition, the inhibition of growth at 20 ppm in data set [7] is at least 80%. In addition, the inhibition of growth at 20 ppm in data set [9] was at least 80%.

Turning to `Cc1cc(-c2cc(C(=O)NCC(C)(c3cnn(C)c3)c3cccc(Cl)n3)no2)n(C)n1` (stereo not shown) [Compound P-85, N-[2-(6-chloro-2-pyridyl)-2-(1-methylpyrazol-4-yl)propyl]-5-(2,5-dimethylpyrazol-3-yl)isoxazole-3-carboxamide], the melting point is 182 to 184 °C. In data set [3], the inhibition of growth at 20 ppm is at least 80%. Besides, the pest or weed control at 200 ppm in data set [10] is at least 80%. Moreover, the pest or weed control at 200 ppm in data set [8] is at least 80%. Moreover, in [9], the inhibition of growth at 20 ppm is at least 80%.

In the case of `Cn1cc(C(C)(CNC(=O)c2cc(-c3cccn3C)on2)c2cccc(Cl)n2)cn1` (stereo not shown) [Compound P-81, N-[2-(6-chloro-2-pyridyl)-2-(1-methylpyrazol-4-yl)propyl]-5-(1-methylpyrrol-2-yl)isoxazole-3-carboxamide], the melting point was in the range of 111 to 113 °C. Moreover, the inhibition of growth at 20 ppm in data set [2] was at least 80%. Further, in data set [3], the inhibition of growth at 20 ppm is at least 80%. Further, the inhibition of growth at 20 ppm in data set [6] was at least 80%. Also, the inhibition of growth at 20 ppm in data set [7] is at least 80%. In addition, the inhibition of growth at 20 ppm in data set [9] is at least 80%.

With `Cn1cc(C(C)(CNC(=O)c2nnc(-c3ccc(F)cc3F)s2)c2cccc(C(F)(F)F)n2)cn1` (stereo not shown) [Compound P-107, 5-(2,4-difluorophenyl)-N-[2-(1-methylpyrazol-4-yl)-2-[6-(trifluoromethyl)-2-pyridyl]propyl]-1,3,4-thiadiazole-2-carboxamide], the melting point was in the range of 162 to 163 °C. Besides, the pest or weed control at 200 ppm in data set [1] was at least 80%. Besides, in data set [2], the inhibition of growth at 20 ppm was at least 80%. In addition, in data set [3], the inhibition of growth at 20 ppm is at least 80%. The compound also came in with a pest or weed control at 200 ppm in data set [10] of at least 80%. Also, the inhibition of growth at 20 ppm in data set [4] is at least 80%. The inhibition of growth at 20 ppm in data set [6] was at least 80%. Moreover, the inhibition of growth at 20 ppm in data set [7] was at least 80%. Moreover, the pest or weed control at 200 ppm in data set [8] is at least 80%. The inhibition of growth at 20 ppm in data set [12] is at least 80%. Moreover, the inhibition of growth at 20 ppm in [9] is at least 80%.
